Experimental data as given in patent US20040038903A1, “Gonadotropin releasing hormone antagonists in gel-forming concentration” (priority 2001, published 2004).

Key:
[1] = test system: Serum Testosterone; assay: Efficacy of formulation in vivo: serum testosterone levels; details: 5 mg/ml in 5% mannitol, 100 μl/kg s.c., adult male Beagle dogs
Method: Peptide 1 is dissolved in 5% mannitol (5 mg/ml). Three adult male Beagle dogs are treated with this solution (100 μl/kg) by subcutaneous injection. Serum Testosterone levels are measured for the following 42 days. When Testosterone levels started to incline again the experiment was terminated.

[2] = Stability of aqueous solution: gel formation by visual examination; format: physicochemical; details: room temperature
Method: Gel formation was determined by visual examination.

[3] = test system: Serum LH; assay: Efficacy of formulation in vivo: serum LH levels; details: 25 mg/ml in 5% mannitol, 80 μl/kg s.c., ovariectomised Rhesus monkeys
Method: Peptide 1 is dissolved in 5% mannitol (25 mg/ml). Three ovariectomised Rhesus monkeys are treated with this solution (80 μl/kg) by subcutaneous injection. Serum LH levels is measured for the following 101 days.

Ac-DNal-DCpa-DPal-Ser-Aph(L-Hor)-DAph(CONH2)-Leu-Lys(iPr)-Pro-DAla-NH2 [Peptide 1]
Serum Testosterone, mean ± se ([1]; Day 7): <0.2 nmol/L | Serum Testosterone, mean ± se ([1]; Day 14): <0.2 nmol/L | Serum Testosterone, mean ± se ([1]; Day 21): <0.2 nmol/L | Serum Testosterone, mean ± se ([1]; Day 28): <0.2 nmol/L | Serum Testosterone, mean ± se ([1]; Day 42): 3.3 ± 3 nmol/L | Serum Testosterone, mean ± se ([1]; Hour 4): <0.2 nmol/L | Serum Testosterone, mean ± se ([1]; Time 0): 13.8 ± 5.7 nmol/L | Stability (time to gel formation) ([2]; 0.25 mg/ml (calculated as free base) in water): No gel formation after 6 months | Stability (time to gel formation) ([2]; 1.0 mg/ml (calculated as free base) in water): No gel formation after 6 months | Stability (time to gel formation) ([2]; 5.0 mg/ml (calculated as free base) in water): Gel formation after 4 weeks | Stability (time to gel formation) ([2]; 10.0 mg/ml (calculated as free base) in water): Gel formation after 2 weeks | Stability (time to gel formation) ([2]; 30.0 mg/ml (calculated as free base) in water): Gel formation after 48 hours | Stability (time to gel formation) ([2]; 40.0 mg/ml (calculated as free base) in water): Gel formation after 24 hours | Stability (time to gel formation) ([2]; 60.0 mg/ml (calculated as free base) in water): Gel formation after 8 hours | Stability (time to gel formation) ([2]; 80.0 mg/ml (calculated as free base) in water): Rapid gel formation within 60 minutes | Stability (time to gel formation) ([2]; 120.0 mg/ml (calculated as free base) in water): Rapid gel formation within 30 minutes | Serum LH, mean ± se ([3]; Day 1): 10.5 ± 1.5 ng/mL | Serum LH, mean ± se ([3]; Day 2): 11.8 ± 2.6 ng/mL | Serum LH, mean ± se ([3]; Day 7): 6.7 ± 1.2 ng/mL | Serum LH, mean ± se ([3]; Day 14): 5.8 ± 0.9 ng/mL | Serum LH, mean ± se ([3]; Day 21): 6.6 ± 1.0 ng/mL | Serum LH, mean ± se ([3]; Day 28): 9.4 ± 1.3 ng/mL | Serum LH, mean ± se ([3]; Day 35): 8.8 ± 1.0 ng/mL | Serum LH, mean ± se ([3]; Day 42): 11.8 ± 2.3 ng/mL | Serum LH, mean ± se ([3]; Day 72): 29.5 ± 4.3 ng/mL | Serum LH, mean ± se ([3]; Day 101): 48.9 ± 8.3 ng/mL | Serum LH, mean ± se ([3]; Hour 6): 16.2 ± 1.9 ng/mL | Serum LH, mean ± se ([3]; Time 0): 60.1 ± 7.5 ng/mL
